The numbers were not newly measured in US20150290439A1, “METHODS FOR BILATERAL CENTRAL AUTONOMIC NEUROMODULATION” (priority 2014, published 2015), which cites them from elsewhere.

Test in data set [1]: not given
This is another data set of the same source.

For data set [2] the following is noted: reason for discontinuation.
Data set [3] has as its target calcitonin gene-related peptide receptor (Homo sapiens, UniProt O60894+Q16602).

Structures are written as SMILES.

calcitonin gene-related peptide receptor, sequence (Q16602 23-461): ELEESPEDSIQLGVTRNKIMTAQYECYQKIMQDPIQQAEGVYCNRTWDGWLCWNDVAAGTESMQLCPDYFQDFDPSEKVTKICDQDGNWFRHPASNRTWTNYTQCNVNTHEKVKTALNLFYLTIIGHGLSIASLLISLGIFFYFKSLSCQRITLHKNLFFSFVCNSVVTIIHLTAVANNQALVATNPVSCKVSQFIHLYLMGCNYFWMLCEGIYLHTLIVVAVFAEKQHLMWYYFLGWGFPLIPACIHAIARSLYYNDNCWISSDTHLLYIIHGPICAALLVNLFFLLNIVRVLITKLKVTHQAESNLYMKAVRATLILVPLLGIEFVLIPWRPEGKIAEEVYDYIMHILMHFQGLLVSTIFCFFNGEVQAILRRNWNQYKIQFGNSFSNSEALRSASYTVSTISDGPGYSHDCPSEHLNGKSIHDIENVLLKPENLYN
calcitonin gene-related peptide receptor, sequence (O60894 27-148): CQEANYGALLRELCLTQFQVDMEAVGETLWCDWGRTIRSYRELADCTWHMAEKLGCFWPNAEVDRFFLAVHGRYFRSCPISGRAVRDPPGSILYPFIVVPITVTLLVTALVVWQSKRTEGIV

As to `Cc1cc(C[C@@H](OC(=O)N2CCC(N3CCc4ccccc4NC3=O)CC2)C(=O)N2CCC(N3CCOCC3)CC2)cc(C)c1O` [BI44370A], the “efficacy in Phase 2 clinical study” value is “efficacy demonstrated”.
As for `N[C@@H]1c2cccnc2[C@H](OC(=O)N2CCC(n3c(=O)[nH]c4ncccc43)CC2)CC[C@H]1c1cccc(F)c1F` [BMS-927711], the “efficacy of the highest tested dose” value in data set [1] (600 mg) was “no additional benefit over the doses of 75 mg and 150 mg”. The “secondary endpoints versus placebo” value in data set [1] (Phase 2b, acute migraine) is “most (and sometimes all) doses were superior to placebo”. Also, in data set [1] (acute dosing), the tolerability entry is “placebo-like”. Besides, the “primary efficacy endpoint: proportion of pain-free subjects at 2 hours post dose” value in data set [1] (all doses, compared with sumatriptan, study not powered for direct comparisons) is given as “numerically inferior to sumatriptan”. Also, the “efficacy as a function of dose” value in data set [1] (doses up to 300 mg) was “increased up to the dose of 75 mg when a plateau effect seemed to have been reached for doses between 75 mg and 300 mg”. In addition, the serious adverse events result in data set [1] (in the trial) was “No serious adverse event was reported”. Besides, in data set [1] (most effective doses), the photophobia and phonophobia result is reported as “significantly improved”; the “secondary endpoints versus sumatriptan” value was “numerically superior to sumatriptan”. The “efficacy of a single dose” value in data set [1] (single dose) was “has been demonstrated”.
Regarding `O=C(CN1C(=O)C2(CCCC2)NC[C@H]1c1cc(F)cc(F)c1)Nc1ccc2c(c1)C[C@@]1(C2)C(=O)Nc2ncccc21` [MK-3207], in data set [2], the liver toxicity entry is “concerns of liver toxicity”. Moreover, the “potency relative to telcagepant” value in data set [3] is reported as “significantly more potent than telcagepant”.
For `O=C(N[C@@H]1CC[C@@H](c2cccc(F)c2F)CN(CC(F)(F)F)C1=O)N1CCC(n2c(=O)[nH]c3ncccc32)CC1` [Telcagepant], the liver toxicity entry in data set [2] is given as “concerns of liver toxicity after frequent use”.
